In ChEMBL document CHEMBL2429847, “Inhibitors of PI3Kβ as Potential Treatment for Cancer” (ACS Med Chem Lett, 2013):

Tests used:
MDA-MB-468 = assay: Antiproliferative activity against PTEN-deficient human MDA-MB-468 cells after 6 days by Alamar blue assay; assay type: functional, cell-based; details: MDA-MB-468, 144 h
[1] = molecular target: Phosphatidylinositol 4,5-bisphosphate 3-kinase catalytic subunit beta isoform (Homo sapiens, UniProt P42338); assay: Inhibition of PI3Kbeta-mediated AKT phosphorylation at Ser473 in PTEN-deficient human MDA-MB-468 cells after 30 mins; assay type: cell-based
Chain of Phosphatidylinositol 4,5-bisphosphate 3-kinase catalytic subunit beta isoform (P42338 whole entry, canonical isoform): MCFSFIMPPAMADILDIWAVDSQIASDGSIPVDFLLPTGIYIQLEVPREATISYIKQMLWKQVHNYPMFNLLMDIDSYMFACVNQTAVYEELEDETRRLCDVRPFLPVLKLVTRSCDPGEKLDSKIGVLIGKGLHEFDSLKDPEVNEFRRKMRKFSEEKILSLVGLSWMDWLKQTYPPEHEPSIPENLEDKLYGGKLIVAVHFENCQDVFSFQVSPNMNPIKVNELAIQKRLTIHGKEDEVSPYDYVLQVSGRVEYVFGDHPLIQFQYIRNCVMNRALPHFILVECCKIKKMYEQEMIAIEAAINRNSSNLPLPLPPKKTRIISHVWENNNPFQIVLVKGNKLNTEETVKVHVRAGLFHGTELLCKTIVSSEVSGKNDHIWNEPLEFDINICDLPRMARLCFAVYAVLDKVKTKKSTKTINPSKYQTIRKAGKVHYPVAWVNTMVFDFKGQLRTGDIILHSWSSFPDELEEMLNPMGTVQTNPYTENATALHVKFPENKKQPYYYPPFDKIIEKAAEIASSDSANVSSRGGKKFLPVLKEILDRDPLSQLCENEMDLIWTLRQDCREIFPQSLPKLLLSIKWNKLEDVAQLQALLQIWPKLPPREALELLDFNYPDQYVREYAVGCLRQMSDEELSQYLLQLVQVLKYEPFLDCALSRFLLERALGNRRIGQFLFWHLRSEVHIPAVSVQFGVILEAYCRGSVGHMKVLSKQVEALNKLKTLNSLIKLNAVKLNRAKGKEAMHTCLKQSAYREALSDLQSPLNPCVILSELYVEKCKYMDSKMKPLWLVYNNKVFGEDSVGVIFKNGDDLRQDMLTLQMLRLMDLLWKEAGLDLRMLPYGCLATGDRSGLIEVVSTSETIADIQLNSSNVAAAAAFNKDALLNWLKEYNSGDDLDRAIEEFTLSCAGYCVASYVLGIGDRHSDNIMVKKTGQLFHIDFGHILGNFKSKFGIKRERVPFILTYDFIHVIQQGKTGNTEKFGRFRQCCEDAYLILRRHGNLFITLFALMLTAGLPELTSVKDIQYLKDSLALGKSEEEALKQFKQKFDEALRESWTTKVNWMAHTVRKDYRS

Row | Compound | EC50 (MDA-MB-468) | IC50 [1]
1 | Cc1c(Cl)cccc1Cn1c(C)nc2c(C(=O)O)cc(N3CCOCC3)nc21 | 18.1 nM | 15.9 nM
2 | Cc1nc2c(C(=O)O)cc(N3CCOCC3)nc2n1Cc1cccc(Cl)c1Cl | 153 nM | 41.4 nM
3 | Cc1c(Cn2c(C)nc3c(C(=O)O)cc(N4CCOCC4)nc32)cccc1C(F)(F)F | 41 nM | 436 nM
